The record followed here is US20230416330A1, “Optimized GIP Peptide Analogues” (Antag Therapeutics ApS, priority 2019, published 2023).

Starred links: 1 amine or outer side, 2 acyl side, 3 side chain; linkers in the order of their positions; H or OH if unused. Non-standard residues stand in square brackets, D forms with d. Residues, ends and D or L forms follow the SMILES beside them. Groups on a side chain read outwards from the residue. *: point of attachment. C18 diacid = O=C(O)CCCCCCCCCCCCCCCCC(=O)*; C16 diacid = O=C(O)CCCCCCCCCCCCCCC(=O)*; γGlu = O=C(O)[C@H](CCC(=O)[*:2])N[*:1]; Adipoyl = O=C(CCCCC(=O)[*:2])[*:1]; Glutaryl = O=C(CCCC(=O)[*:2])[*:1]; Nle = CCCC[C@H](N)C(=O)O; AEEA = NCCOCCOCC(=O)O; Aib = CC(C)(N)C(=O)O

One data set addresses T1, human GIP receptor (Homo sapiens, UniProt P48546).
T1 construct: host or cells: HEK-293 cells, transient transfection (Lipofectamine 2000), cDNA in pCMV-Script vector
T1 sequence (P48546 22-466): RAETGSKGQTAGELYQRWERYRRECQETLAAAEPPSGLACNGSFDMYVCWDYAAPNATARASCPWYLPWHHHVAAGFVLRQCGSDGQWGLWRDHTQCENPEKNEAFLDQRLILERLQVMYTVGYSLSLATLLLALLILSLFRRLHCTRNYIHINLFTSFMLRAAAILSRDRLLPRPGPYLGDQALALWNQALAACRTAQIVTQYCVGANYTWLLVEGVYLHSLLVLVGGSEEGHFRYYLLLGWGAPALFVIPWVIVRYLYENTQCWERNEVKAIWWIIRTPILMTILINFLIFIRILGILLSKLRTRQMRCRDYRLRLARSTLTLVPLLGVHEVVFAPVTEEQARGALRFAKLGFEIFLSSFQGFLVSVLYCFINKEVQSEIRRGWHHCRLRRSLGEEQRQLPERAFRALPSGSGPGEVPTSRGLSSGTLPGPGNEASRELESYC
The data set is described as follows: cAMP assay Alternative 2 (Gaddum assay), antagonist potency pKb. It counts as cell-based. The following applies: Table 2C; Gaddum equation, single antagonist dose; HEK-293 hGIPR; read-out: nM (Kb). The protocol:
HEK293 cells were cultured in 10% CO2 and 37° C. in Dulbecco's modified Eagle's medium supplemented with 10% fetal bovine serum, 2 mM glutamine, 180 units/ml penicillin, and 45 µg/ml streptomycin. Transient transfection with hGIPR for the CisBio assay from Table 2C was performed by using Lipofectamine 2000.
Antagonist potency (pKb) was estimated in a functional setting. The estimated pKb values were calculated from the shifts of the agonist-concentration-response curves in the presence of a single dose of GIP peptide antagonists using the Gaddum equation: pKb=log(DR-1)-log(B), where DR (EC50′/EC50) is the dose ratio calculated from EC50 of GIP1-42 obtained in the presence and absence (EC50) of antagonist, and B is the antagonist concentration used.
The in vitro functional assessment of compounds towards human GIP receptor was determined in HEK-293 cells transiently expressing the receptor. On the day of the assay, cells were resuspended in HBSS buffer (Gibco, 14025-50) supplemented with […] (Gibco, 15630-106), 0.1% Pluronic F-68 (Gibco, 24040-032) and 0.1% casein (Sigma, C4765), and plated in 384-well plates at a density of 3500 cells/well. The GIP peptide analogues of the present disclosure were diluted in HBSS buffer supplemented with 20 mM HEPES, 0.1% pluronic, 0.1% casein and 500 uM IBMX. […] Increasing dose of agonist (GIP1-42) was subsequently added to cells and incubated for additionally 30 min at 37° C. The intracellular cAMP was quantitatively determined using the CisBio cAMP Dynamic 2 HTRF Assay Kit. The assay is based on a competition between native cAMP produced by cells and cAMP labeled with the dye d2 for binding to a cryptate labeled antibody. The specific signal (i.e. energy transfer signal) is inversely proportional to the concentration of cAMP in the sample.
The cAMP-d2 conjugate and the antibody anti-cAMP-Cryptate, both diluted in lysis buffer provided in the kit, were added to the cells according to the manufacturer's protocol. The resulting competitive assay was incubated for 60 minutes at room temperature, and the signal was detected by using a PerkinElmer Envision® instrument with excitation at 320 nm and emission at 665 nm and 620 nm. The HTRF ratio (emission at 665 nm/620 nm*10,000) is inversely proportional to the amount of cAMP present and is converted to nM cAMP per well using a cAMP standard curve.
For orientation: cAMP levels reflect the balance of adenylyl cyclase and phosphodiesterase activity.

Data set [1] can be described thus: Solubility by visual inspection of peptide solutions. It is filed as physicochemical. To be noted: 1 mg/ml, TFA, Phosphate (7.4). The essentials:
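Peptides dissolved at 1, 5, 7.5 or 15 mg/ml in 50 mM sodium phosphate pH 7.4 or water adjusted to pH 7.4 with NaOH, with gentle mixing. Immediate solubility judged visually as a clear, colorless solution.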

Data set [2] is described as follows: Physical stability: fibril formation in Thioflavin T (ThT) assay with agitation. It is filed as physicochemical. To be noted: 1 mg/ml, TFA, Phosphate (7.4); 25° C., agitation. The essentials:
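Peptides at 1, 5, 7.5 or 15 mg/ml in 50 mM sodium phosphate pH 7.4 or in water adjusted to pH 7.4 with NaOH, filtered 0.22 μm, with ThT added. Wells held a 3 mm silica bead under 300 rpm orbital agitation at 25° C. Emission at 486 nm tracked continuously; lag time = 10% of transition above baseline.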

One may read the Kb as the equilibrium dissociation constant of an antagonist, usually derived from a functional assay.

`CCCC[C@H](NC(=O)C(C)(C)NC(=O)[C@@H](NC(=O)[C@H](CO)NC(=O)[C@H](Cc1ccc(O)cc1)NC(=O)[C@H](CCC(=O)O)NC(=O)[C@H](CO)NC(=O)[C@@H](NC(=O)[C@H](Cc1ccccc1)NC(=O)[C@@H](NC(=O)CNC(=O)CCCC(=O)O)[C@@H](C)O)[C@@H](C)CC)[C@@H](C)CC)C(=O)N[C@@H](CCC(=O)O)C(=O)N[C@@H](CCCCN)C(=O)N[C@H](C(=O)N[C@@H](CCCCNC(=O)CCCCCCCCCCCCCCC(=O)O)C(=O)N[C@@H](CCC(N)=O)C(=O)N[C@@H](CCC(N)=O)C(=O)N[C@@H](CCC(=O)O)C(=O)N[C@@H](Cc1ccccc1)C(=O)N[C@H](C(=O)N[C@@H](CCC(=O)O)C(=O)N[C@@H](Cc1c[nH]c2ccccc12)C(=O)N[C@@H](CC(C)C)C(=O)N[C@@H](CC(C)C)C(=O)N[C@@H](C)C(=O)N[C@@H](CCC(N)=O)C(=O)N[C@@H](CCCCN)C(=O)N1CCC[C@H]1C(=O)N[C@@H](CO)C(=O)N[C@@H](CO)C(=O)NCC(=O)N[C@@H](C)C(=O)N1CCC[C@H]1C(=O)N1CCC[C@H]1C(=O)N1CCC[C@H]1C(=O)N[C@@H](CO)C(=O)O)C(C)C)[C@@H](C)CC` [AT755] (Glutaryl-GTFISEYSI[Aib][Nle]EKIK(C16 diacid)QQEFVEWLLAQKPSSGAPPPS-OH): the Kb on human GIP receptor was determined as 0.23 nM. For the same compound, the Visual appearance result in data set [1] was “Clear”. Moreover, the “Avr lag time (h)” value in data set [2] is recorded as “fnd (Fnd = fibrils not detected within experiment time (96 hours) with agitation.)”.

Take `CC[C@H](C)[C@H](NC(=O)[C@H](CO)NC(=O)[C@H](Cc1ccc(O)cc1)NC(=O)[C@H](CC(=O)O)NC(=O)[C@H](CO)NC(=O)[C@@H](NC(=O)[C@H](Cc1ccccc1)NC(=O)[C@@H](NC(=O)CNC(=O)[C@@H](N)CCC(=O)O)[C@@H](C)O)[C@@H](C)CC)C(=O)N[C@@H](C)C(=O)N[C@@H](CCSC)C(=O)N[C@@H](CC(=O)O)C(=O)N[C@@H](CCCCN)C(=O)N[C@H](C(=O)N[C@@H](CCCCNC(=O)CCCCCCCCCCCCCCC(=O)O)C(=O)N[C@@H](CCC(N)=O)C(=O)N[C@@H](CCC(N)=O)C(=O)N[C@@H](CC(=O)O)C(=O)N[C@@H](Cc1ccccc1)C(=O)N[C@H](C(=O)N[C@@H](CCC(=O)O)C(=O)N[C@@H](Cc1c[nH]c2ccccc12)C(=O)N[C@@H](CC(C)C)C(=O)N[C@@H](CC(C)C)C(=O)N[C@@H](C)C(=O)N[C@@H](CCC(N)=O)C(=O)N[C@@H](CCCCN)C(=O)O)C(C)C)[C@@H](C)CC` [AT749] (H-EGTFISDYSIAMDKIK(C16 diacid)QQDFVEWLLAQK-OH; N-terminus assumed): on human GIP receptor, the Kb came to 2.2 nM. In addition, the Visual appearance entry in data set [1] is “Clear”. Moreover, in data set [2], the “Avr lag time” value is less than 24 h.

Turning to `CC[C@H](C)[C@H](NC(=O)[C@H](CO)NC(=O)[C@H](Cc1ccc(O)cc1)NC(=O)[C@H](CCC(=O)O)NC(=O)[C@H](CO)NC(=O)[C@@H](NC(=O)[C@H](Cc1ccccc1)NC(=O)[C@@H](NC(=O)CNC(=O)CCCC(=O)O)[C@@H](C)O)[C@@H](C)CC)C(=O)N[C@@H](C)C(=O)N[C@@H](CC(C)C)C(=O)N[C@@H](CCC(=O)O)C(=O)N[C@@H](CCCCN)C(=O)N[C@H](C(=O)N[C@@H](CCCCNC(=O)COCCOCCNC(=O)COCCOCCNC(=O)CC[C@H](NC(=O)CCCCCCCCCCCCCCCCC(=O)O)C(=O)O)C(=O)N[C@@H](CCC(N)=O)C(=O)N[C@@H](CCC(N)=O)C(=O)N[C@@H](CCC(=O)O)C(=O)N[C@@H](Cc1ccccc1)C(=O)N[C@H](C(=O)N[C@@H](CCC(=O)O)C(=O)N[C@@H](Cc1c[nH]c2ccccc12)C(=O)N[C@@H](CC(C)C)C(=O)N[C@@H](CC(C)C)C(=O)N[C@@H](C)C(=O)N[C@@H](CCC(N)=O)C(=O)N[C@@H](CCCCN)C(=O)N1CCC[C@H]1C(=O)N[C@@H](CO)C(=O)N[C@@H](CO)C(=O)NCC(=O)N[C@@H](C)C(=O)N1CCC[C@H]1C(=O)N1CCC[C@H]1C(=O)N1CCC[C@H]1C(=O)N[C@@H](CO)C(=O)O)C(C)C)[C@@H](C)CC` [AT707] (Glutaryl-GTFISEYSIALEKIK([AEEA-AEEA-γGlu-C18 diacid])QQEFVEWLLAQKPSSGAPPPS-OH), the Kb at human GIP receptor was found to be 0.28 nM.

For `CC[C@H](C)[C@H](NC(=O)[C@H](CCCCN)NC(=O)[C@H](CCC(=O)O)NC(=O)[C@H](CCSC)NC(=O)C(C)(C)NC(=O)[C@@H](NC(=O)[C@H](CO)NC(=O)[C@H](Cc1ccc(O)cc1)NC(=O)[C@H](CCC(=O)O)NC(=O)[C@H](CO)NC(=O)[C@@H](NC(=O)[C@H](Cc1ccccc1)NC(=O)[C@@H](NC(=O)CNC(=O)[C@@H](N)CCC(=O)O)[C@@H](C)O)[C@@H](C)CC)[C@@H](C)CC)C(=O)N[C@@H](CCCCNC(=O)CCCCCCCCCCCCCCC(=O)O)C(=O)N[C@@H](CCC(N)=O)C(=O)N[C@@H](CCC(N)=O)C(=O)N[C@@H](CC(=O)O)C(=O)N[C@@H](Cc1ccccc1)C(=O)N[C@H](C(=O)N[C@@H](CCC(=O)O)C(=O)N[C@@H](Cc1c[nH]c2ccccc12)C(=O)N[C@@H](CC(C)C)C(=O)N[C@@H](CC(C)C)C(=O)N[C@@H](C)C(=O)N[C@@H](CCC(N)=O)C(=O)N[C@@H](CCCCN)C(=O)N1CCC[C@H]1C(=O)N[C@@H](CO)C(=O)N[C@@H](CO)C(=O)NCC(=O)N[C@@H](C)C(=O)N1CCC[C@H]1C(=O)N1CCC[C@H]1C(=O)N1CCC[C@H]1C(=O)N[C@@H](CO)C(=O)O)C(C)C` [AT716] (H-EGTFISEYSI[Aib]MEKIK(C16 diacid)QQDFVEWLLAQKPSSGAPPPS-OH; N-terminus assumed), on human GIP receptor, the Kb was 0.29 nM.

On to `CC[C@H](C)[C@H](NC(=O)[C@H](CCCCN)NC(=O)[C@H](CCC(=O)O)NC(=O)[C@H](CC(C)C)NC(=O)C(C)(C)NC(=O)[C@@H](NC(=O)[C@H](CO)NC(=O)[C@H](Cc1ccc(O)cc1)NC(=O)[C@H](CCC(=O)O)NC(=O)[C@H](CO)NC(=O)[C@@H](NC(=O)[C@H](Cc1ccccc1)NC(=O)[C@@H](NC(=O)CNC(=O)CCCCC(=O)O)[C@@H](C)O)[C@@H](C)CC)[C@@H](C)CC)C(=O)N[C@@H](CCCCNC(=O)COCCOCCNC(=O)COCCOCCNC(=O)CC[C@H](NC(=O)CCCCCCCCCCCCCCCCC(=O)O)C(=O)O)C(=O)N[C@@H](CCC(N)=O)C(=O)N[C@@H](CCC(N)=O)C(=O)N[C@@H](CCC(=O)O)C(=O)N[C@@H](Cc1ccccc1)C(=O)N[C@H](C(=O)N[C@@H](CCC(=O)O)C(=O)N[C@@H](Cc1c[nH]c2ccccc12)C(=O)N[C@@H](CC(C)C)C(=O)N[C@@H](CC(C)C)C(=O)N[C@@H](C)C(=O)N[C@@H](CCC(N)=O)C(=O)N[C@@H](CCCCN)C(=O)N1CCC[C@H]1C(=O)N[C@@H](CO)C(=O)N[C@@H](CO)C(=O)NCC(=O)N[C@@H](C)C(=O)N1CCC[C@H]1C(=O)N1CCC[C@H]1C(=O)N1CCC[C@H]1C(=O)N[C@@H](CO)C(=O)O)C(C)C` [AT753] (Adipoyl-GTFISEYSI[Aib]LEKIK([AEEA-AEEA-γGlu-C18 diacid])QQEFVEWLLAQKPSSGAPPPS-OH), for which the Kb on human GIP receptor was 0.23 nM.
